Seven compounds from BindingDB's records for doi:10.1021/jm050738x (University of Tokyo, 2006) can be followed below.

The assay is described as follows: Antagonist activity assessed by differentiation of 1,25-D3-induced HL60 cells.
In the case of `C=C1/C(=C\C=C2/CCC[C@@]3(C)C2CC[C@@H]3[C@H](C)C[C@H]2C[C@](C)(O)C(=O)N2C(C)C)C[C@@H](O)C[C@@H]1O` (some centres not stated), the IC50 was more than 1000 nM.
For `C=C1/C(=C\C=C2/CCC[C@]3(C)[C@@H]([C@H](C)C[C@H]4C[C@](C)(O)C(=O)N4Cc4ccccc4)CC[C@@H]23)C[C@@H](O)C[C@@H]1O` [(3S,5S)-1-benzyl-5-((R)-2-((1R,3aS,7aR)-4-(2-((3S,5R)-3,5-dihydroxy-2-methylenecyclohexylidene)ethylidene)-7a-methyl-octahydro-1H-inden-1-yl)propyl)-3-hydroxy-3-methylpyrrolidin-2-one] the value was 700 nM.
For `C=C1/C(=C\C=C2/CCC[C@]3(C)[C@@H]([C@H](C)C[C@H]4C[C@](C)(O)C(=O)N4CCCc4ccccc4)CC[C@@H]23)C[C@@H](O)C[C@@H]1O` [(3S,5S)-5-((R)-2-((1R,3aS,7aR)-4-(2-((3S,5R)-3,5-dihydroxy-2-methylenecyclohexylidene)ethylidene)-7a-methyl-octahydro-1H-inden-1-yl)propyl)-3-hydroxy-3-methyl-1-(3-phenylpropyl)pyrrolidin-2-one] the value was 2200 nM; for `C=C1/C(=C\C=C2/CCC[C@]3(C)[C@@H]([C@H](C)C[C@H]4C[C@](C)(O)C(=O)N4CCCCc4ccccc4)CC[C@@H]23)C[C@@H](O)C[C@@H]1O` [(3S,5S)-5-((R)-2-((1R,3aS,7aR)-4-(2-((3S,5R)-3,5-dihydroxy-2-methylenecyclohexylidene)ethylidene)-7a-methyl-octahydro-1H-inden-1-yl)propyl)-3-hydroxy-3-methyl-1-(4-phenylbutyl)pyrrolidin-2-one], 390 nM; for `C=C1/C(=C\C=C2/CCC[C@]3(C)[C@@H]([C@H](C)C[C@H]4C[C@@](C)(O)C(=O)N4CCc4ccccc4)CC[C@@H]23)C[C@@H](O)C[C@@H]1O` [(3R,5S)-5-((R)-2-((1R,3aS,7aR,E)-4-((Z)-2-((3S,5R)-3,5-dihydroxy-2-methylenecyclohexylidene)ethylidene)-7a-methyloctahydro-1H-inden-1-yl)propyl)-3-hydroxy-3-methyl-1-phenethylpyrrolidin-2-one], more than 2000 nM.
With `C=C1/C(=C\C=C2/CCC[C@]3(C)[C@@H]([C@H](C)C[C@H]4C[C@](C)(O)C(=O)N4CCc4ccccc4)CC[C@@H]23)C[C@@H](O)C[C@@H]1O` [(3S,5S)-5-((R)-2-((1R,3aS,7aR)-4-(2-((3S,5R)-3,5-dihydroxy-2-methylenecyclohexylidene)ethylidene)-7a-methyl-octahydro-1H-inden-1-yl)propyl)-3-hydroxy-3-methyl-1-phenethylpyrrolidin-2-one], the midpoint of inhibition, the IC50, lay at 207 nM.
In turn, `C=C1/C(=C\C=C2/CCC[C@@]3(C)C2CC[C@@H]3[C@H](C)C[C@H]2C[C@](C)(O)C(=O)N2Cc2ccc(OC)cc2)C[C@@H](O)C[C@@H]1O` (some centres not stated) had a 50% inhibitory concentration (IC50) of 660 nM.
